Earlier results on two substances are cited in patent US8030432B2, “Copolymerization of hydroxytyrosol with flavonoids mediated by horseradish peroxidases” (The United States of America as represented by the …, priority 2009, dated 2011).

The conditions of series [1]: addition of 300 mg/Kg; red meat and poultry.

epigallocatechin-3-gallate [EGCG]: the “decomposition at room temperature” value was “decompose at room temperature after a few minutes”.

On to catechin, for which the inhibition of oxidation entry in series [1] is listed as “showed inhibition of oxidation”.
